Assay results taken from patent publication US6787612B1, “Resin derivatization method and uses thereof” (Dendreon Corporation, priority 1998, dated 2004).

Tests used:
urokinase = urokinase (Homo sapiens, UniProt P00749); experiment: urokinase inhibitory activity in in vitro assays; assay type: biochemical; settings: for urokinase inhibitory activity: in vitro assays
thrombin = settings: in vitro assays

| SMILES | specific inhibitory activity toward urokinase (urokinase) | urokinase inhibitory activity (urokinase) | thrombin inhibitory activity (thrombin) |
| --- | --- | --- | --- |
| N=C(N)NCCCC(C=O)NC(=O)C1CCN1C(=O)C(CO)NS(=O)(=O)c1ccccc1.O=C(O)C(F)(F)F [Example 14, benzenesulfonyl-D-seryl-azetidyl-argininal, trifluoroacetate salt] | demonstrates specific inhibitory activity toward urokinase | shown to have urokinase inhibitory activity |  |
| N=C(N)NCCCC(C=O)NC(=O)CN1CCCC(NS(=O)(=O)Cc2ccccc2)C1=O (stereo not shown) [Example 8, Benzylsulfonamido-6Lactam-Gly-Argininal] |  |  | shown to have thrombin inhibitory activity |
| C[C@H](NC(=O)[C@@H](CO)NCCCc1ccccc1)C(=O)N[C@H](C=O)CCCNC(=N)N.O=C(O)C(F)(F)F [Example 26, N-alpha-(3-phenylpropyl)-D-seryl-alanyl-argininal, trifluoroacetate salt] |  | shown to have urokinase inhibitory activity |  |
